Source: US12292380B2, “Integrated microfluidic device for capture and spectroscopic characterization of live cells under various treatment conditions” (CORNELL UNIVERSITY, priority 2018, dated 2025)

Legend:
A431 cells [1] = assay: MEIRS monitoring of trypsinization (detachment of adherent cells from the metasurface), PCA of reflection spectra; assay type: cell-based; conditions: 0.025% trypsin at t=66 min, between t=66 min and t=100 min, time resolution 1 min
Experimental: (§1) The following method is used for monitoring a drug's effect of the cells. The method can be implemented using the same or similar detection unit 100, detection device 300, and detection system 10, as described above and shown in FIGS. 1 and 2-12. First, the metasurface 102 is assembled with the microfluidic chamber 302, and the cells are seeded on the metasurface 102 in culture media. The cells are then incubated until they are well-adhered on the metasurface 102. The metasurface 102 (with cells) is then transferred to a FTIR microscope 20 for continuous collection of IR spectra. Background spectra of the cells are collected for some time, before the drug to be tested is introduced to the cells via a microfluidic pump (such as a syringe pump 20 like that shown in FIG. 12). […]
Referring briefly to FIG. 24, there are shown contrast microscopy images of A431 cells on the metasurface 102 and graphs of the resulting PCA scores/loadings obtained from their spectra. The most robust adhesion-related effects, such as trypsinization (i.e., the detachment of adherent cells from the metasurface 102 by application of trypsin, a proteolytic enzyme that breaks down adhesion proteins), can be easily detected using MEIRS. […] Reflection spectra were analyzed using principal components analysis (PCA). […]

A431 cells [2] = assay: MEIRS measurement of the response of A431 cells to epidermal growth factor, PCA of reflectance spectra; assay type: cell-based; conditions: 40 nM EGF injected at t=240 min, time resolution 1 min
Experimental: as §1, with “spectra.” for “spectra. Background spectra of the cells are collected for some time, before the drug to be tested is introduced to the cells via a microfluidic pump (such as a syringe pump 20 like that shown in FIG. 12).”
Referring briefly to FIG. 25, there are shown graphs of the resulting PCA scores/loadings obtained from A431 cells with the addition of epidermal growth factor (EGF). […] Specifically, 40 nM EGF was injected to the microfluidic measurement chamber 302 at t=240 min., while continuously monitored with time resolution of Δt=1 min. The measured reflectance spectra were analyzed using PCA. […] Although the biological interpretation of such signal is still not clear, it is hypothesized that the measured response corresponds to at least two processes in the cell, likely related to the cells' cytoskeletal reorganization in response of EGF.

| Substance | time evolution of the PC1 score (cell detachment from the metasurface) (A431 cells [1]) | PC1 score response to EGF (A431 cells [2]) | time for PC2 score to recover to the baseline level before the EGF injection (A431 cells [2]) |
| --- | --- | --- | --- |
| trypsin | rapid detachment of the cells |  |  |
| epidermal growth factor (NSDSECPLSHDGYCLHDGVCMYIEALDKYACNCVVGYIGERCQYRDLKWWELR; Epidermal growth factor; UniProt P01133 971-1023, looked up) [EGF, epidermal growth factor (EGF)] |  | permanent change to the cell | about 200 min |
